Reference: US20040219602A1, “Evaluating effects of exposure conditions on drug samples over time” (Symyx Technologies, Inc., priority 2003, published 2004)

Assays:
Type in all cases: physicochemical
[1] = Fluorescence emission of solid drug samples exposed to 80° C. (thermal stability); conditions: oven at 80° C., 15 and 41 hours vs unexposed, Renishaw Raman Spectrometer
Procedure: In the following examples, drug candidate stability is evaluated using non-destructive tests to track any change in property over time while exposed to a condition. Fluorescence, Raman, powder X-ray diffraction, near-IR, mid-IR, UV-Vis absorbance, and colorimetry are used. A change in the peak intensity for these tests is measured for the samples before exposure and during exposure.
Two 20 ml vials containing approximately 10 mg each of Amoxicillin, two 20 ml vials containing approximately 10 mg each of Ampicillin trihydrate and two 20 ml vials containing approximately 10 mg each of Caphalexin hydrate were prepared and placed in an oven at 80° C. One vial of each compound was removed from the oven after 15 hours of exposure, and the other vial of each compound was removed from the oven after 41 hours. Approximately 2 mg samples from each of the vials were placed in discreet regions of a Universal ⋄ Substrate™. Approximately 2 mg of unexposed Amoxicillan, Ampicillin trihydrate and Cephalexil hydrate were also placed in discreet regions of the Universal ⋄ Substrate™. The Raman scattering response and the fluorescence emission response of the samples were measured using a Renishaw Raman Spectrometer.

[2] = FT-Raman of solid drug samples exposed to 80° C. (thermal stability); conditions: heated for 216 hours at 80° C. vs unexposed
Excerpt: The change in FT-Raman signal is used to measure the rate of drug decomposition and the chemical stability of the drug candidate.

[3] = Powder X-ray diffraction of exposed and unexposed drug sample (thermal stability, crystallinity); conditions: solid, oven 216 hours at 100 C vs unexposed
Procedure: Approximately 2 mg of Amoxicillin was placed on a Universal ⋄ Substrate™ and exposed in an oven for 216 hours at 100 C. After the sample was removed from the oven, approximately 2 mg of unexposed sample was also on the placed on the Universal ⋄ Substrate™. The X-ray powder diffraction (XRD) patterns for the exposed and unexposed samples were collected on a Bruker D-8 C2 X-ray diffractometer.

Row | amplitude of the fluorescence emission as a function of heating time [1] | change of FT-Raman spectrum after heating [2] | crystallinity (powder diffraction intensity) after exposure [3] | Compound
1 | increased significantly | changes significantly | almost completely lost | CC1(C)S[C@@H]2[C@H](NC(=O)[C@H](N)c3ccc(O)cc3)C(=O)N2[C@H]1C(=O)O [Amoxicillin]
2 | increased significantly | – | – | CC1(C)S[C@@H]2[C@H](NC(=O)[C@H](N)c3ccccc3)C(=O)N2[C@H]1C(=O)O [Ampicillin trihydrate]
3 | increased significantly | – | – | CC1=C(C(=O)O)N2C(=O)[C@@H](NC(=O)[C@H](N)c3ccccc3)[C@H]2SC1 [Cephalexin hydrate]
